The record followed here is ChEMBL document CHEMBL1201862, “PubChem BioAssay data set” (2004).

SMILES strings stand for the structures.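 1) Cells in 96-well plates. 2) Compound, 48 h, 5 concentrations. 3) Linear interpolation between surrounding doses. 4) Unreached endpoint = highest concentration. GI50 is the concentration that inhibits growth by half.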 Active and inactive are the calls of the source. Rule as the data show it: active = GI50 up to about 1.1 µM and inactive = higher. Bounds are passed on as bounds.

Some test systems named below: TK-10; SK-MEL-5; SNB-19; LOX IMVI; OVCAR-4; SK-MEL-28; HT-29; NCI-H226; 786-0; UACC-257; UO-31; U-251; A498; MOLT-4; SNB-75; COLO 205; DU-145; MDA-N; MDA-MB-435.
Holding throughout (experiment): growth of human tumour cells (NCI), 48 h

As for `CC(Oc1ccc(OCC2CCCCC2)cc1)C(=O)OCC(=O)c1ccc(-c2ccccc2)cc1` (centres undefined), the GI50 in the test with TK-10, with SK-MEL-5, in the test with SNB-19, in the test with LOX IMVI, with OVCAR-4 and in the test with SK-MEL-28 was > 100 µM (inactive) each time. For the same compound, the GI50 in the test with HT-29, in the test with NCI-H226, in the test on 786-0, in the test with UACC-257, with UO-31 and in the test on U-251 was > 100 µM (inactive) each time. The GI50 in the test with A498, in the test with MOLT-4 and in the test with SNB-75 was > 100 µM (inactive) throughout.
`CCOC(=O)CCC(NC(=O)c1ccc(NC(OC)c2nc3cc(C(F)(F)F)ccc3nc2-c2ccccc2)cc1)C(=O)OCC` (centres undefined): the GI50 is 21 µM (inactive) with TK-10; 16.3 µM (inactive) in the test on SK-MEL-5; 14.4 µM (inactive) in the test on SNB-19; 16.5 µM (inactive) in the test on COLO 205; 10.4 µM (inactive) in the test on LOX IMVI; 21.5 µM (inactive) in the test with OVCAR-4. The GI50 is 17.3 µM (inactive) with SK-MEL-28; 7.93 µM (inactive) in the test on HT-29; 18.6 µM (inactive) in the test on NCI-H226; 12.7 µM (inactive) in the test with 786-0; 16.3 µM (inactive) in the test on UACC-257; 13.6 µM (inactive) with UO-31. For the same compound, the GI50 in the test on U-251 was 15.6 µM (inactive); with A498 it was 17.3 µM (inactive); in the test with MOLT-4 it was 2.67 µM (inactive); in the test with SNB-75, 19.9 µM (inactive).
With `Fc1cc(-c2ncc(Cl)cc2Cl)c2cccccc1-2`, the GI50 with TK-10, in the test on DU-145, in the test on SK-MEL-5, in the test with SNB-19, in the test on COLO 205 and with LOX IMVI was > 100 µM (inactive) in each case. For the same compound, the GI50 is 76.2 µM (inactive) in the test on HT-29; > 100 µM (inactive) in the test with NCI-H226; > 100 µM (inactive) in the test on 786-0; > 100 µM (inactive) with UACC-257; > 100 µM (inactive) with UO-31; > 100 µM (inactive) with MDA-N. In addition, in the test on SNB-75, the GI50 is > 100 µM (inactive).
As to `CC1=CC(=O)NP(=O)(Oc2ccc(Cl)cc2)N1` (centres undefined), the GI50 with TK-10, in the test with SK-MEL-5, with SNB-19, in the test on COLO 205, with LOX IMVI and in the test on OVCAR-4 was > 100 µM (inactive) throughout. Moreover, the GI50 in the test on SK-MEL-28, in the test with HT-29, in the test with NCI-H226, with 786-0, in the test on UACC-257 and in the test on UO-31 was > 100 µM (inactive) throughout. Besides, the GI50 with U-251, in the test on A498, with MOLT-4 and in the test with SNB-75 was > 100 µM (inactive) throughout.
On to `CCOC(=O)C1=C(OC(OCC)C(CC)[Se]c2ccccc2)CCC1` (centres undefined), for which the GI50 was 82 µM (inactive) with TK-10; 12.6 µM (inactive) in the test on SK-MEL-5; 42.2 µM (inactive) in the test with SNB-19; 34.3 µM (inactive) in the test with COLO 205; 7.31 µM (inactive) with LOX IMVI; 13.2 µM (inactive) with OVCAR-4. In addition, the GI50 is 32.3 µM (inactive) in the test on SK-MEL-28; 25.1 µM (inactive) with HT-29; 18.3 µM (inactive) in the test with NCI-H226; 15.5 µM (inactive) in the test on 786-0; 28 µM (inactive) with UACC-257; 28.9 µM (inactive) with UO-31. The GI50 with U-251 was 11.4 µM (inactive); in the test on A498, 41.2 µM (inactive); with MOLT-4 it was 20.1 µM (inactive); in the test with SNB-75, 25.3 µM (inactive).
For `C/C(=N\N(c1ccccc1)c1ccccc1)c1c(O)cc(C)oc1=O`, the GI50 with TK-10 is > 100 µM (inactive); in the test on SNB-19 it was > 100 µM (inactive); in the test with LOX IMVI, > 100 µM (inactive); in the test on OVCAR-4, 45.1 µM (inactive); in the test on SK-MEL-28, > 100 µM (inactive); in the test with HT-29, > 100 µM (inactive). The GI50 was > 100 µM (inactive) in the test with NCI-H226; > 100 µM (inactive) with 786-0; 47.8 µM (inactive) with UACC-257; 25.7 µM (inactive) in the test with UO-31; 22.4 µM (inactive) in the test on U-251; > 100 µM (inactive) with A498. Further, the GI50 in the test with MOLT-4 is 54.2 µM (inactive); with SNB-75 it was > 100 µM (inactive).
In the case of `Cc1cccc(C(=O)O)c1C(=O)c1cccc2ccccc12`, the GI50 in the test with TK-10, with SK-MEL-5, with SNB-19, in the test with COLO 205, in the test with LOX IMVI and in the test with OVCAR-4 was > 100 µM (inactive) in each case. Further, the GI50 in the test with SK-MEL-28, in the test with HT-29, in the test with NCI-H226, with 786-0, with UACC-257 and in the test with UO-31 was > 100 µM (inactive) throughout. Besides, the GI50 in the test on U-251 was > 100 µM (inactive); in the test on A498, 88.3 µM (inactive); with MOLT-4 it was 33.1 µM (inactive); in the test on SNB-75, > 100 µM (inactive).
As for `C[C@@]1(O)C[C@@H](N2C(=O)O[C@@H](c3ccccc3)[C@H]2c2ccccc2)[C@@H]1COCc1ccccc1`, the GI50 in the test with TK-10 is 29.2 µM (inactive); with DU-145, 28.5 µM (inactive); in the test with SK-MEL-5, 13.7 µM (inactive); with SNB-19, 34.8 µM (inactive); in the test on COLO 205, 15 µM (inactive); with LOX IMVI it was 15.9 µM (inactive). Further, the GI50 in the test on OVCAR-4 was 22.9 µM (inactive); in the test with SK-MEL-28, 18.2 µM (inactive); with MDA-MB-435, 28.4 µM (inactive); in the test with HT-29, 17.9 µM (inactive); in the test with NCI-H226, 20.2 µM (inactive); in the test on 786-0, 21.3 µM (inactive). Besides, the GI50 with UACC-257 is 15.9 µM (inactive); in the test on UO-31, 21.6 µM (inactive); with MDA-N, 16.2 µM (inactive); with U-251, 14.6 µM (inactive); with A498, 18.4 µM (inactive); with MOLT-4, 5.41 µM (inactive).
Regarding `Cc1cc(C(=O)NCCN(C)C)c2nc3ccccc3nc2c1`, the GI50 in the test with TK-10 is 4.42 µM (inactive); in the test with SK-MEL-5, 4.44 µM (inactive); with SNB-19, 6.79 µM (inactive); in the test on COLO 205, 3.08 µM (inactive); in the test with LOX IMVI, 2.22 µM (inactive); in the test with OVCAR-4, 4.75 µM (inactive). Besides, the GI50 in the test on SK-MEL-28 was 5.05 µM (inactive); in the test with HT-29, 2.67 µM (inactive); in the test on NCI-H226, 3.44 µM (inactive); in the test on 786-0, 7.8 µM (inactive); in the test with UACC-257 it was 4.16 µM (inactive); in the test on U-251 it was 5.82 µM (inactive). The GI50 with A498 was 3.92 µM (inactive); in the test on MOLT-4, 0.128 µM (active); in the test with SNB-75 it was 4.52 µM (inactive).
For `Cc1ccc(S(=O)(=O)N[C@H](C(=O)O)c2ccccc2)cc1`, the GI50 in the test on TK-10, in the test with SK-MEL-5, in the test on SNB-19, in the test with COLO 205, with LOX IMVI and in the test with OVCAR-4 was > 100 µM (inactive) in each case. For the same compound, the GI50 in the test with SK-MEL-28, in the test on HT-29, in the test with NCI-H226, in the test on 786-0, in the test on UACC-257 and with UO-31 was > 100 µM (inactive) in each case. Further, the GI50 was > 100 µM (inactive) in the test with U-251, > 100 µM (inactive) with A498, 58.6 µM (inactive) in the test with MOLT-4 and > 100 µM (inactive) in the test on SNB-75.
Regarding `Cc1cccc2c1Oc1ncccc1C2NC(=O)CN(C)C` (centres undefined), the GI50 in the test with TK-10, in the test on SNB-19, with LOX IMVI, in the test on OVCAR-4, with MDA-MB-435 and with HT-29 was > 10 µM (inactive) in each case. The GI50 with NCI-H226, with 786-0, with UACC-257, in the test with UO-31, with U-251 and in the test with MOLT-4 was > 10 µM (inactive) throughout. The GI50 in the test with SNB-75 was 7.78 µM (inactive).
Turning to `CC1=C(/C(C)=N/NS(=O)(=O)c2ccc(C)cc2)Sc2ccccc2N1`, the GI50 in the test on TK-10 is > 100 µM (inactive); in the test on SK-MEL-5, 47.5 µM (inactive); with SNB-19 it was > 100 µM (inactive); in the test with COLO 205, 48.1 µM (inactive); in the test on LOX IMVI it was 70.8 µM (inactive); with OVCAR-4, > 100 µM (inactive). Besides, the GI50 in the test on SK-MEL-28 is > 100 µM (inactive); with HT-29 it was 98.6 µM (inactive); with NCI-H226, > 100 µM (inactive); in the test with 786-0 it was > 100 µM (inactive); in the test with UACC-257, 65.5 µM (inactive); in the test on UO-31, 57 µM (inactive). In addition, the GI50 is 47.9 µM (inactive) in the test on U-251, > 100 µM (inactive) with A498, 52.7 µM (inactive) in the test on MOLT-4 and 75.7 µM (inactive) with SNB-75.
In the case of `CC1=C(C(=O)NCc2ccccc2)C(c2ccc([N+](=O)[O-])cc2)C(C(=O)NCc2ccccc2)=C(C)N1`, the GI50 in the test with TK-10 is 42.8 µM (inactive); in the test on SK-MEL-5, 38.5 µM (inactive); in the test on SNB-19 it was 65.2 µM (inactive); in the test on COLO 205 it was 29.2 µM (inactive); with LOX IMVI it was 18.2 µM (inactive); in the test with OVCAR-4 it was 17.4 µM (inactive). The GI50 is 37.7 µM (inactive) in the test on SK-MEL-28; 18.1 µM (inactive) with HT-29; 31.8 µM (inactive) with NCI-H226; 44.2 µM (inactive) with 786-0; 38.6 µM (inactive) in the test on UACC-257; 20.6 µM (inactive) in the test on UO-31. In addition, the GI50 was 40.3 µM (inactive) in the test on U-251, 86.1 µM (inactive) with A498 and 40.4 µM (inactive) with SNB-75.
